Measurements from patent US4164576A, “Benzoxazine carboxamides” (Shell Oil Company, priority 1978, dated 1979).

System: swine adipose tissue
Experiment: Inhibition of lipogenesis (lipid synthesis from glucose-U-14C) in swine adipose tissue slices
Type: cell-based
Conditions: Sus scrofa, 100 micrograms per milliliter, 37° C., 2 hours, 5% DMSO, insulin, triplicate, read-out: Percent Inhibition of lipogenesis compared to control
Description: The manner in which they cause this effect is not known with certainty; it is believed that they interfere with the synthesis of fatty acids in the tissues. Their effectiveness for this purpose has been ascertained by immersing samples of swine adipose tissue in a liquid medium containing radioactive glucose and the test chemical for a period of time, then isolating the lipid from the treated tissue and determining the up-take of the radio-active carbon by means of scintillation counting techniques. These tests were conducted in swine adipose tissue because in swine, the primary site of lipogenesis--i.e., fatty acid synthesis--appears to be adipose tissue.
Described in more detail, the tests were conducted according to the following general procedure:
150 milligrams of slices of swine adipose tissue were incubated at 37° C. for 2 hours with shaking in 3 milliliters of Krebs-Rringer bicarbonate solution containing one-half the normal calcium ion concentration, 60 micromoles of glucose, 0.5 micro-Curie of glucose-U^14 C, and 300 microunits of insulin, and 5% dimethyl sulfoxide (DMSO). The test compounds were added as a solution or suspension in DMSO and were present at a concentration of 100 micrograms per milliliter of the incubation mixture.
The incubation was terminated by addition of 0.25 milliliter of 1 N sulfuric acid. The resulting mixture was extracted with a total of 25 milliliters of chloroform: methanol (2:1 v/v). The extracts were washed according to Folch et al. (J. Biol. Chem., 226, 497-509, (1957)), air dried, and counted in a liquid scintillation counter with 15 milliliters of counting fluid (two parts toluene containing 0.4% w/v New England Nuclear Omnifluor: 1 part Triton X-100). The tests were conducted in triplicate and were accompanied by control tests in which all ingredients,proportions and conditions were the same except that no test compound was included. From the data obtained were calculated the percent inhibition of lipid synthesis by the test compounds in each case. The data obtained from the tests are set out in Table 1, as the percent inhibition of lipogenesis compared to the results obtained in the control tests wherein only the test compound was omitted.

| SMILES | inhibition at 100 µg/mL [%] |
| --- | --- |
| C=CCNC(=O)C1CNc2cc(NS(C)(=O)=O)ccc2O1 (centres unmarked) [Compound 5, 3,4-dihydro-6-((methylsulfonyl)amino)-N-(2-propenyl)-2H-1,4-benzoxazine-2-carboxamide] | 40 |
| C=CCNC(=O)C1CNc2cc(Cl)c(Cl)cc2O1 (centres unmarked) [Compound 9, 6,7-dichloro-3,4-dihydro-N-(2-propenyl)-2H-1,4-benzoxazine-2-carboxamide] | 44 |
| C=CCNC(=O)C1CNc2cc(-c3ccccc3)ccc2O1 (centres unmarked) [Compound 11, 3,4-dihydro-6-phenyl-N-(2-propenyl)-2H-1,4-benzoxazine-2-carboxamide] | 70 |
| C=CCNC(=O)C1CNc2ccc(C)cc2O1 (centres unmarked) [Compound 10, 3,4-dihydro-7-methyl-N-(2-propenyl)-2H-1,4-benzoxazine-2-carboxamide] | 21 |
| C=CCNC(=O)C1CNc2cccc(Cl)c2O1 (centres unmarked) [Compound 8, 8-chloro-3,4-dihydro-N-(2-propenyl)-2H-1,4-benzoxazine-2-carboxamide] | 24 |
| C=CCNC(=O)C1CNc2cc(OC)ccc2O1 (centres unmarked) [Compound 7, 3,4-dihydro-6-methoxy-N-(2-propenyl)-2H-1,4-benzoxazine-2-carboxamide] | 76 |
| C=CCNC(=O)C1CNc2cc(C(F)(F)F)ccc2O1 (centres unmarked) [Compound 6, 6-(trifluoromethyl)-3,4-dihydro-N-(2-propenyl)-2H-1,4-benzoxazine-2-carboxamide] | 57 |
| C=CCNC(=O)C1CN(C)c2ccccc2O1 (centres unmarked) [Compound 2, 3,4-dihydro-4-methyl-N-(2-propenyl)-2H-1,4-benzoxazine-2-carboxamide] | 40 |
| C=CCNC(=O)C1CNc2cc(C)ccc2O1 (centres unmarked) [Compound 4, 6-methyl-3,4-dihydro-N-(2-propenyl)-2H-1,4-benzoxazine-2-carboxamide] | 57 |
| C=CCNC(=O)C1CNc2cc(Cl)ccc2O1 (centres unmarked) [Compound 3, 6-chloro-3,4-dihydro-N-(2-propenyl)-2H-1,4-benzoxazine-2-carboxamide] | 63 |
| C=CCNC(=O)C1CNc2ccccc2O1 (centres unmarked) [Compound 1, 3,4-dihydro-N-(2-propenyl)-2H-1,4-benzoxazine-2-carboxamide] | 51 |
